Like-named read-outs stand apart in the source and are kept apart here.
Legend:
[1] = system: creatine kinase expression in Ad5-wt-hERα infected HAECT-1 cells; assay: ER/CK: creatine kinase expression in Ad5-wt-ER infected HAECT-1 cells; type: cell-based, human; conditions: for EC50: Homo sapiens; for ER/CK % Eff*: efficacy relative to the maximal stimulation observed with E2
Experimental: (§1) T-175 flasks of 100% confluent HAECT-1 cells (immortalized human aortic endothelial cells) were washed with 8 ml of HBSS (HEPES buffered saline solution) and infected for four hours with 6 ml of a 1:10 dilution of Ad5-wt-hERα virus (an adenovirus transfection vector that mediates CMV promoter driven expression of human ERα) in phenol red free Endothelial Cell Basal medium (Clonetics, San Diego Calif., Catalog # CC-3129) containing 0.25% bovine serum albumin (EBM-BSA). After four hours, cells were washed with EBM-BSA and incubated overnight in the same medium. Following overnight incubation, cells were washed with EBM-BSA and infected for 2 hours with 6 ml of a 1:10 dilution of Ad5-3×(NFκB).Luc virus (Adenovirus luciferase expression vector driven by 3 repeats of the MHC NFκb site 5′ to the thymidine kinase promoter) in EBM-BSA. After two hours, cells were washed and incubated at 34° C. for 1 hour. Cells were then washed, trypsinized, counted and resuspended in 95% FBS/5% dimethylsulfoxide at a concentration of 4×10^6 cells/ml, frozen as 1 or 5 ml aliquots in cryo-vials and stored at −150° C. Control (no ER infection) cells were processed as above without Ad5-wt-hERα virus infection.
(§2) ERα infected HAECT-1 cells or control cells were thawed, diluted 42× in warm EBM-BSA, plated into 96-well plates at 0.1 ml/well and incubated for 4 h at 34° C. Test compounds were added to the cells as 2× stocks in EBM-BSA containing 2 ng/ml IL-1β (R&D Systems) and plates were returned to the incubator (34° C.). After 15-20 h, 100 μl aliquots of media were removed from the cells and assayed for IL-6 content using a BioSource human IL-6 ELISA Kit. Cells were subsequently washed with 300 μl of Dulbecco's phosphate buffered saline and lysed in 50 μl of Cell Culture Lysis Reagent (Promega). Luciferase was determined on a Wallac Victor^2 Luminometer (Gaithersburg, Md.) using 10 μl of lysate and mixing with 100 μl of Promega Luciferase Assay reagent. Creatine kinase was determined from the rate of increase in A340 following addition of 100 μl of CK assay reagent (Sigma, cat. No 47-10) to the remainder of the cell lysate.
(§3) For IC50 and EC50 calculations, mean IL-6, luciferase or CK values versus log10 of the compound concentration were fitted to a four parameter logistic equation. The IC50/EC50 value, ‘Hill slope’, upper and lower limits of the curve were iteratively estimated.

[2] = system: NF-κB luciferase reporter in Ad5-wt-hERα infected HAECT-1 cells; assay: ER/NF-κB-luc: IL-1β induced NF-κB luciferase reporter in Ad5-wt-ER infected HAECT-1 cells; type: cell-based; conditions: Homo sapiens; for IC50: HAECT1, Ad5-wt-ER infected HAECT-1 cells, IL-1β, read-out: ER/NF-KB-luc IC50; for Emax: HAECT1, efficacy relative to the maximal inhibition observed with E2, read-out: ER/NF-KB-luc % Eff*
Experimental: as §1, §2, §3

[3] = system: IL-6 expression in Ad5-wt-hERα infected HAECT-1 cells; assay: ER/IL-6: IL-6 expression (ELISA) in Ad5-wt-ER infected HAECT-1 cells; type: cell-based, human; conditions: for IC50: IL-1β; for ER/IL-6 % Eff: efficacy relative to the maximal inhibition observed with E2
Experimental: as §1, §2, §3

TNF-α mRNA = assay: NF-κB target gene expression in liver of mice fed a high fat diet: TNFa; type: in vivo, C57BL/6 mice; conditions: 10 mg/kg
Experimental: (§4) Ovariectomized C57BL/6 mice (16-20 g) (Taconic) were separated into groups of 8. After 5-7 days of recuperation, the mice were fed a chow diet or an atherogenic diet (15.75% fat, 1.25% cholesterol and 0.5% sodium cholate) (Purina diet #21539). EE or test compound was administered once daily by gavage in a methylcellulose/tween vehicle (0.1 ml per mouse) for 5 weeks. At the end of the experimental period, the liver was collected and uterine wet weight was recorded.
(§5) Liver total RNA was prepared by using Trizol reagent (BRL). Estrogen and compound regulation of NF-κB target genes were verified by real time RT-PCR using an ABI PRISM 7700 Sequence Detection System according to the manufacturer's protocol (Applied Biosystems). The data was analyzed using the Sequence Detector v1.7 software (Applied Biosystems) and normalized to GAPDH using the Applied Biosystems primer set.
(§6) To determine the ability of estrogens to regulate the development of diet-induced inflammation in the liver, gene expression changes resulting from the atherogenic diet were monitored. Ovariectomized C57BL/6 mice were fed either a chow or atherogenic diet and treated daily with EE (0.01 mg/kg) or test compound (Table 2).

RANTES mRNA = assay: NF-κB target gene expression in liver of mice fed a high fat diet: RANTES; type: in vivo, C57BL/6 mice; conditions: 10 mg/kg
Experimental: as §4, §5, §6

VCAM-1 mRNA = assay: NF-κB target gene expression in liver of mice fed a high fat diet: VCAM-1; type: in vivo, C57BL/6 mice; conditions: 10 mg/kg
Experimental: as §4, §5, §6

MHC invariant chain mRNA = assay: NF-κB target gene expression in liver of mice fed a high fat diet: MHC; type: in vivo, C57BL/6 mice; conditions: 10 mg/kg
Experimental: as §4, §5, §6

[4] = Ad5-wt-ER infected HAECT-1 cells
[5] = HAECT1, read-out: ER/CK EC50 (nM)
[6] = Homo sapiens, HAECT1, Ad5-wt-ER infected HAECT-1 cells
[7] = once daily by gavage, 5 weeks, ovariectomized mice on atherogenic diet, liver RT-PCR

| Structure (SMILES) | ER/CK EC50 (nM) [1, 4] | IC50 [2] | Emax [2] | melting point | also measured |
| --- | --- | --- | --- | --- | --- |
| O=C(c1cccc(O)c1)c1nn(C2C=CCCC2)c2ccccc12 (centres unmarked) [Example 20, (1-cyclohex-2-en-1-yl-1H-indazol-3-yl)(3-hydroxyphenyl)methanone] | ia | 155 nM | 87% | 140 to 141 °C | – |
| O=C(c1cccc(O)c1)c1c2ccccc2nn1-c1ccc(Br)cc1 [Example 23, [2-(4-bromophenyl)-2H-indazol-3-yl](3-hydroxyphenyl)methanone] | ia | 82 nM | 79% | – | – |
| COc1cccc(-n2nc(C(=O)c3cccc(O)c3)c3ccccc32)c1 [Example 22, (3-hydroxyphenyl)[1-(3-methoxyphenyl)-1H-indazol-3-yl]methanone] | ia | 475 nM | 75% | – | – |
| CC(C)n1nc(C(=O)c2cccc(O)c2)c2cccc(C(F)(F)F)c21 [Example 13, (3-hydroxyphenyl)[1-isopropyl-7-(trifluoromethyl)-1H-indazol-3-yl]methanone] | ia | 63 nM | 85% | 145 °C | – |
| O=C(c1cccc(O)c1)c1n[nH]c2c(C(F)(F)F)cccc12 [Example 10, (3-hydroxyphenyl)[7-(trifluoromethyl)-1H-indazol-3-yl]methanone] | ia | 593 nM | 88% | – | – |
| CCCn1nc(C(=O)c2cccc(O)c2)c2ccccc21 [Example 3, (3-hydroxyphenyl)(1-propyl-1H-indazol-3-yl)methanone] | – | 722 nM | 70% | – | EC50 [1, 5]: 2640 nM; ER/CK % Eff* [1]: 35% |
| C/C=C/Cn1nc(C(=O)c2cccc(O)c2)c2ccccc21 | – | – | – | 75 to 78 °C | – |
| C[C@]12CC[C@@H]3c4ccc(O)cc4CC[C@H]3[C@@H]1CC[C@@H]2O [Example E2, 17β-estradiol, reference compound] | – | ~1 nM | 100% | – | EC50 ([1]; HAECT1, Ad5-wt-ER infected HAECT-1 cells, read-out: ER/CK EC50): 5.8 nM; ER/CK % Eff* [1]: 100%; IC50 [3, 4]: 1.7 nM; IC50 [3, 6]: ~1 nM; ER/IL-6 % Eff [3]: 100% |
| C=C(C)Cn1nc(C(=O)c2cccc(O)c2)c2ccccc21 [Example 14, (3-hydroxyphenyl)[1-(2-methylprop-2-enyl)-1H-indazol-3-yl]methanone] | ia | 388 nM | 103% | 75 to 78 °C | – |
| CC(C)n1nc(C(=O)c2cccc(O)c2)c2ccccc21 [Example 5, (3-hydroxyphenyl)(1-isopropyl-1H-indazol-3-yl)methanone] | – | 1070 nM | 83% | – | EC50 [1, 5]: 1790 nM; ER/CK % Eff* [1]: 55% |
| Oc1cccc(Cc2n[nH]c3ccccc23)c1 [Example 1, 3-[(1H-indazol-3-yl)methyl]phenol] | – | – | – | 170 to 172 °C | – |
| CCCn1nc(C(=O)c2cccc(O)c2)c2cccc(C(F)(F)F)c21 [Example 11, (3-hydroxyphenyl)[1-propyl-7-(trifluoromethyl)-1H-indazol-3-yl]methanone] | ia | 198 nM | 82% | 118 °C | – |
| O=C(c1cccc(O)c1)c1nn(C2CCCC2)c2ccccc12 [Example 4, (1-cyclopentyl-1H-indazol-3-yl)(3-hydroxyphenyl)methanone] | – | 170 nM | 77% | – | EC50 [1, 5]: 1330 nM; ER/CK % Eff* [1]: 57%; TNFa % inhib (TNF-α mRNA; [7]): 45%; TNFa (eff %) (TNF-α mRNA; value in parentheses): 100%; RANTES % inhib (RANTES mRNA; [7]): 67%; RANTES (eff %) (RANTES mRNA; value in parentheses): 151%; IC50 [3, 6]: 66 nM; ER/IL-6 % Eff [3]: 109%; VCAM-1 % inhib (VCAM-1 mRNA; [7]): 59%; VCAM-1 (eff %) (VCAM-1 mRNA; value in parentheses): 100%; MHC % inhib (MHC invariant chain mRNA; [7]): 60%; MHC (eff %) (MHC invariant chain mRNA; value in parentheses): 138% |
| C=CCn1nc(C(=O)c2cccc(O)c2)c2ccccc21 [Example 18, (1-allyl-1H-indazol-3-yl)(3-hydroxyphenyl)methanone] | ia | 1240 nM | 92% | – | – |
| O=C(c1ccc(O)cc1)c1n[nH]c2c(C(F)(F)F)cccc12 [Example 7, (4-hydroxyphenyl)[7-(trifluoromethyl)-1H-indazol-3-yl]methanone] | ia | 1000 nM | 43% | – | – |
| CC(C)Cn1nc(C(=O)c2cccc(O)c2)c2ccccc21 [Example 17, (3-hydroxyphenyl)(1-isobutyl-1H-indazol-3-yl)methanone] | – | 710 nM | 100% | 108 to 110 °C | EC50 [1, 5]: 1570 nM; ER/CK % Eff* [1]: 51% |
| O=C(c1ccc(O)cc1)c1nn(C2CCCC2)c2c(C(F)(F)F)cccc12 [Example 8, [1-cyclopentyl-7-(trifluoromethyl)-1H-indazol-3-yl](4-hydroxyphenyl)methanone] | ia | 94 nM | 87% | 225 to 226 °C | – |
| O=C(c1cccc(O)c1)c1nn(C2CCCC2)c2c(C(F)(F)F)cccc12 [Example 12, [1-cyclopentyl-7-(trifluoromethyl)-1H-indazol-3-yl](3-hydroxyphenyl)methanone] | – | 54 nM | 73% | 152 °C | EC50 [1, 5]: 139 nM; ER/CK % Eff* [1]: 32% |
| CC(C)n1nc(C(=O)c2ccc(O)cc2)c2cccc(C(F)(F)F)c21 [Example 9, (4-hydroxyphenyl)[1-isopropyl-7-(trifluoromethyl)-1H-indazol-3-yl]methanone] | ia | 107 nM | 80% | – | – |
| Oc1cccc(Cc2nn(C3CCCC3)c3ccccc23)c1 [Example 6, 3-[(1-cyclopentyl-1H-indazol-3-yl)methyl]phenol] | ia | 570 nM | 54% | – | – |
| O=C(c1cccc(O)c1)c1nn(Cc2ccccc2)c2ccccc12 [Example 19, (1-benzyl-1H-indazol-3-yl)(3-hydroxyphenyl)methanone] | ia | 409 nM | 92% | – | – |
| CC(C)=CCn1nc(C(=O)c2cccc(O)c2)c2ccccc21 | – | – | – | 92 to 94 °C | – |
